Reference: patent US4410525A, “Alkoxy pyrazole derivatives and compositions” (Establissements Nativelle S.A., priority 1981, dated 1983)
Read-outs that look alike come from different tables or passages of the source.

Assays:
[1] = system: ventricular arrhythmias induced by aconitine in the anesthetized rat; experiment: Antiarrhythmic test with aconitine on the rat; assay type: in vivo
Protocol: The derivatives of the invention were used in the test with aconitine on the rat. For this test, the anesthetized rat was intoxicated by an intravenous perfusion of aconitine (solution of aconitine nitrate: 15 mg/l; speed of perfusion: 0.4 ml/min) while its electrocardiogram was recorded permanently. During perfusion at constant speed, the time necessary for the appearance of ventricular arrhythmias, successively ventricular extrasystoles (ESV), ventricular tachycardium (TV) and ventricular fibrillation (FV) was measured.
The animals were divided into a control group (untreated) and treated group (different doses). The results are expressed as a percentage of prolonging the time of the appearance of the arrhythmias in the treated groups in relation to the control group. This prolongation of arrhythmia appearance time therefore corresponds to myocardiac protection against the arrhythmic effects of aconitine.

[2] = Acute toxicity (lethal dose 50) in the mouse; details: in vivo
Description: The acute toxicity of the deriatives of the invention were studied by oral administration (P.O) to the mouse (10 animals, 5 males and 5 females per dose) and calculation of the lethal dose 50 (LD 50) in accordance with the method of Litchfield and Wilcoxon (J. Pharmacol., 96, 99-113 (1949)). Table 1 gives the LD 50 values of the derivatives of the invention.
In certain cases, the LD 50 was also studied after intraperitoneal injection (I.P.) of the derivatives.

[3] = system: anoxic ventricular fibrillation in mice; experiment: Cardiac antifibrillatory activity on the mouse (Lawson test); assay type: in vivo; details: ip, intraperitoneal, 10 minutes before chloroform, read-out: ED 50 (protects half the mice against anoxic ventricular fibrillation)
Protocol: Cardiac antifibrillatory activity of the derivatives of the invention has been verified on the mouse using the Lawson test, in accordance with the method described by J. W. Lawson, J. Pharmacol. Exp. Therp. 160, 22-31 (1968), and C. Narcisse et al., Ann. Pharm. Fr. 37, 325-330 (1979).
The mice (20 per dose) received an intraperitoneal injection of the derivative 10 minutes before being placed in a chloroform saturated atmosphere. As soon as respiratory arrest occurred, the thorax was opened (5 to 10 seconds) and the state of the heart was checked: presence or absence of ventricular fibrillation. The efficacy dose 50 (ED 50) of the derivative being studied is the dose which protects half the mice against anoxic ventricular fibrillation.

[4] = system: rabbit cornea; experiment: Local contact anesthesia on the rabbit cornea; assay type: in vivo; details: solution at 0.25% or 1% by weight, eyewash instillation
Description: For example, the derivatives described in Examples 2, 3, 4, 6, 7 and 9 are local anesthetics (100% anesthesia) in a solution at 0.25% or 1% by weight.

[5] = system: isolated guinea pig auricle; experiment: Maximum stimulation frequency test on isolated guinea pig auricle; details: Cavia porcellus; 10 mg/l; read-out: Δ% MFS (decrease of the maximum frequency followed)
Protocol: The maximum frequency test carried out studied the maximum stimulation frequency which can cause contraction of an isolated guinea pig auricle placed in a solution containing a derivative of the invention. The measurement was carried out before (control period) and then after introduction of the derivative into the solution.

[6] = system: anesthetized dog; experiment: Hemodynamic effects on the anesthetized dog; assay type: in vivo; details: i.v.; for (dp/dt)l/p, percentage of variation / Cardiac flow, percentage of variation / Cardiac frequency, percentage of variation / Contraction force of the myocardium, percentage of variation / Systolic arterial pressure, percentage of variation / Systolic volume, percentage of variation: Example 4 series, vs pretreatment; for Cardiac frequency (result in words) / Systolic arterial pressure (result in words) / force of ventricular myocardiac contractions (result in words) / cumulative dose at which a 20% drop of cardiac flow is reached: anesthetized dog
Protocol: Cardiovascular tolerance was studied on the isolated guinea pig auricle, on the anesthetized rat and on the anesthetized dog.
On the anesthetized dog, the results obtained with respect to hemodynamic tolerance are summarized in Table 2 below which indicates the percentages of variation of the hemodynamic parameters in relation to the pre-treatment control period for the derivatives of Examples 2 and 4.
The parameters were recorded by means of:
Catheters connected to pressure sensors (arterial pressure, left ventricular pressure and its first derivative dp/dt);
Electromagnetic flowmeter on the aorta (aortic flow);
Strain gauge placed on the left ventricular myocardium (force of myocardiac contraction).
The derivatives were injected intraveneously, one dose approximately every 30 minutes and their effects were measured 20 minutes after the completion of the injection (length of the injection 2 minutes).

[7] = system: ventricular extrasystoles in the dog; experiment: Harris test on the dog; assay type: in vivo; details: during the 2 hours following the injection
Protocol: By way of example, the number of ventricular extrasystoles per minute decreases by approximately 50% during the 2 hours following the injection of the product, in the case of the derivative described in Example 10. Moreover, the antiarrhythmic effect (myocardiac protection) increases with the size of the dose injected.

[8] = read-out: Prolongation of time of appearance of ventricular extrasystoles (ESV)
[9] = read-out: Prolongation of time of appearance of ventricular fibrillation (FV)
[10] = read-out: Prolongation of time of appearance of ventricular tachycardium (TV)
[11] = oral (P.O.), 5 males and 5 females per dose, read-out: LD 50 P.O.

## Cc1c(-c2ccccc2)n[nH]c1OCCN1CCOCC1 [Example 4, 3-Phenyl-4-methyl-5-morpholinoethoxy-pyrazole]
[1]; [8]
  change in vivo at 10 mg/kg: 7%
[1]; [9]
  change in vivo at 10 mg/kg: 18%
[1]; [10]
  change in vivo at 10 mg/kg: 22%
[2]; [11]
  LD50: 750 mg/kg
[3]
  ED50: 46 mg/kg
[4]
  local anesthesia: 100%
[5]
  inhibition at 10 µg/mL: 27%
[6]; dose 1 mg/kg
  (dp/dt)l/p, percentage of variation: +10%
  Cardiac flow, percentage of variation: 0%
  Cardiac frequency, percentage of variation: 0%
  Contraction force of the myocardium, percentage of variation: +5%
  Systolic arterial pressure, percentage of variation: 0%
  Systolic volume, percentage of variation: 0%
[6]; dose +3 mg/kg
  (dp/dt)l/p, percentage of variation: +2%
  Cardiac flow, percentage of variation: 0%
  Cardiac frequency, percentage of variation: 0%
  Contraction force of the myocardium, percentage of variation: +10%
  Systolic arterial pressure, percentage of variation: 0%
  Systolic volume, percentage of variation: 0%
[6]; dose +10 mg/kg
  (dp/dt)l/p, percentage of variation: -10%
  Cardiac flow, percentage of variation: -23%
  Cardiac frequency, percentage of variation: 0%
  Contraction force of the myocardium, percentage of variation: +26%
  Systolic arterial pressure, percentage of variation: 0%
  Systolic volume, percentage of variation: -23%
[6]; dose +20 mg/kg
  (dp/dt)l/p, percentage of variation: -21%
  Cardiac flow, percentage of variation: -34%
  Cardiac frequency, percentage of variation: 0%
  Contraction force of the myocardium, percentage of variation: +42%
  Systolic arterial pressure, percentage of variation: 0%
  Systolic volume, percentage of variation: -34%
[6]; dose +40 mg/kg
  (dp/dt)l/p, percentage of variation: -10%
  Cardiac flow, percentage of variation: -11%
  Cardiac frequency, percentage of variation: -18%
  Contraction force of the myocardium, percentage of variation: +52%
  Systolic arterial pressure, percentage of variation: 0%
  Systolic volume, percentage of variation: -8%
[6]
  Cardiac frequency (result in words): does not change
  Systolic arterial pressure (result in words): does not change
  force of ventricular myocardiac contractions (result in words): increases
  cumulative dose at which a 20% drop of cardiac flow is reached: greater than 4 mg/kg

## Clc1ccc(-c2cc(OCCN3CCCC3)[nH]n2)cc1 [Example 7]
[1]; [8]
  change in vivo at 10 mg/kg: 11%
[1]; [9]
  change in vivo at 10 mg/kg: 32%
[1]; [10]
  change in vivo at 10 mg/kg: 45%
[2]; ip, intraperitoneal (I.P.), read-out: LD 50 I.P.
  LD50: 280 mg/kg
[2]; [11]
  LD50: 1000 mg/kg
[3]
  ED50: 66 mg/kg
[4]
  local anesthesia: 100%
[5]
  inhibition at 10 µg/mL: 45%

## c1ccc(-c2cc(OCCN3CCCCC3)[nH]n2)cc1 [Example 9]
[1]; [8]
  change in vivo at 10 mg/kg: 0%
[1]; [9]
  change in vivo at 10 mg/kg: 38%
[1]; [10]
  change in vivo at 10 mg/kg: 28%
[2]; [11]
  LD50: 400 to 800 mg/kg
[3]
  ED50: 44 mg/kg
[4]
  local anesthesia: 100%
[5]
  inhibition at 10 µg/mL: 48%
[6]
  Cardiac frequency (result in words): drops moderately
  Systolic arterial pressure (result in words): does not change
  force of ventricular myocardiac contractions (result in words): does not vary significantly
  cumulative dose at which a 20% drop of cardiac flow is reached: greater than 4 mg/kg

## Clc1ccc(-c2cc(OCCN3CCOCC3)[nH]n2)cc1 [Example 10]
[2]; [11]
  LD50: 1000 mg/kg
[5]
  inhibition at 10 µg/mL: 15%
[7]
  decrease of the number of ventricular extrasystoles per minute: approximately 50%
